How the values were obtained:
[1] = target: T1, recombinant F508del V470 CFTR in Fischer rat thyroid (FRT) cells (Homo sapiens, UniProt P13569, DEL508-508); assay: FRT ion flux assay of F508del CFTR potentiation; type: cell-based; details: FRT cells expressing F508del V470 CFTR, forskolin 20 uM, 27° C. pre-incubation
T1 construct: expressed in transfected cells
In short: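 Potentiation read as YFP quench ~21 s after iodide buffer addition, as second/initial fluorescence ratio normalised between DMSO (0%) and reference potentiator (100%).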

[2] = target: T2, CFTR in F508del/F508del primary CF hBE cells (Homo sapiens, UniProt P13569, DEL508-508); assay: Ussing chamber electrophysiology assay of CFTR potentiation in F508del/F508del CF bronchial epithelial cells (27° C.); type: cell-based
T2 construct: Primary cystic fibrosis human bronchial epithelial (CF hBE) cells were expanded and cultured; endogenous in cells; host or cells: primary CF human bronchial epithelial cells, genotype F508del/F508del
Source text: • SHELXTL, Version 5.1, Bruker AXS, 1997. • PLATON, A. L. Spek, J. Appl. Cryst. 2003, 36, 7-13. • MERCURY, C. F. Macrae, P. R. Edington, P. McCabe, E. Pidcock, G. P. Shields, R. Taylor, M. Towler and J. van de Streek, J. Appl. Cryst. 39, 453-457, 2006. • OLEX2, Dolomanov, O. V.; Bourhis, L. J.; Gildea, R. J.; Howard, J. A. K.; Puschmann, H., (2009). J. Appl. Cryst., 42, 339-341. • R. W. W. Hooft et al. J. Appl. Cryst. (2008). 41. 96-103. • H. D. Flack, Acta Cryst. 1983, A39, 867-881. Using Chamber Electrophysiology Assay of CFTR Potentiation in CF Bronchial Epithelial Cells
Primary cystic fibrosis human bronchial epithelial (CF hBE) cells were expanded and cultured according to published methods (Neuberger et al., Ch. 4 of Cystic Fibrosis, Methods in Molecular Biology vol. 741, pp. 39-54 (2011)). Well-differentiated cells (>30 days at air/liquid interface) on Snapwell filters (Corning Costar, cat. no. 3801) were mounted in Ussing chambers (Physiologic Instruments, Inc., San Diego, CA). […] HEPES buffered physiological saline (composition (in mM): 137 NaCl, 4 KCl, 1 MgCl2, 1.8 CaCl2), 10 HEPES Na) was used in both apical and basolateral chambers. Chambers were bubbled with air to promote mixing and the voltage was clamped to zero. Amiloride (30 uM), forskolin (10 uM), test compound (4 increasing concentrations), and CFTRinh-172 (20 uM) were added sequentially with 20-25 minutes between additions. Short-circuit currents were acquired and analyzed using LabScribe2. Test compound responses were scaled relative to responses for DMSO (0%) and the maximal response of a positive control potentiator (100%).

T1 sequence (P13569 with tags, fused parts or gaps DEL508-508): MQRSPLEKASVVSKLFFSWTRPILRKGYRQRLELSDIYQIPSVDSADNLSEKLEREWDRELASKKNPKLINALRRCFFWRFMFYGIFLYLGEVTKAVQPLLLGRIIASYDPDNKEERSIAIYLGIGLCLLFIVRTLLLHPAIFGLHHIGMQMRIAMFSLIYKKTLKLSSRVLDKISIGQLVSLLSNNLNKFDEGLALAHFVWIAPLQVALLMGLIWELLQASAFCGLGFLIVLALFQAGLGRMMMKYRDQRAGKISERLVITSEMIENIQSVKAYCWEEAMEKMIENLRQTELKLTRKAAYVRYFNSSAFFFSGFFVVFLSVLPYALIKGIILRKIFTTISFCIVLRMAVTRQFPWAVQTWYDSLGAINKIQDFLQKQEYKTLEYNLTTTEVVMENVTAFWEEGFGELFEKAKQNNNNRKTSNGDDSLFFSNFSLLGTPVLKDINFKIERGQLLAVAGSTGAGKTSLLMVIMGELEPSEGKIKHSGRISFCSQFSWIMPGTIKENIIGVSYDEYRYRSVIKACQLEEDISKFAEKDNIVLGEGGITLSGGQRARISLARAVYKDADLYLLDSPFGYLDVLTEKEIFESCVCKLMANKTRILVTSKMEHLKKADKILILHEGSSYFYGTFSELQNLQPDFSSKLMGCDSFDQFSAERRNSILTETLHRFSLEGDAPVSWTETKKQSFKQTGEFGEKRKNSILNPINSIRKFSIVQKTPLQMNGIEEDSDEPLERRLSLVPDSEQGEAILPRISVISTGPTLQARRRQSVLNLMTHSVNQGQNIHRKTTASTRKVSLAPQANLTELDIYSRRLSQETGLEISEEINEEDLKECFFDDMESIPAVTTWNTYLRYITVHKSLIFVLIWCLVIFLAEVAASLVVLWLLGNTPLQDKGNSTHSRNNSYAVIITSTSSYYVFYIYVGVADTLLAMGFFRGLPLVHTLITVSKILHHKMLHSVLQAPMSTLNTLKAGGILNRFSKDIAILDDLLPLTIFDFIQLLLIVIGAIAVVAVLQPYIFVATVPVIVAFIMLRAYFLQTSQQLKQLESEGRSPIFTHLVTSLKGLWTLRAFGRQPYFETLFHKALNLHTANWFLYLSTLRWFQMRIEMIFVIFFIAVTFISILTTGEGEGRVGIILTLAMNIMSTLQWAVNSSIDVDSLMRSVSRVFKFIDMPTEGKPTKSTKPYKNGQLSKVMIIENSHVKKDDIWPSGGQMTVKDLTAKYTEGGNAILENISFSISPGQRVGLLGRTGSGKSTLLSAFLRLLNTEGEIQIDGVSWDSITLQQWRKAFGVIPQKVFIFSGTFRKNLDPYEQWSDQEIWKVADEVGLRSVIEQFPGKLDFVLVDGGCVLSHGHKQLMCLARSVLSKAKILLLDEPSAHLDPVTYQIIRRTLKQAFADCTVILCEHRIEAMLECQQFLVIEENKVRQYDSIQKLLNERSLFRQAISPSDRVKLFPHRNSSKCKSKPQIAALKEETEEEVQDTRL
T2 sequence (P13569 with tags, fused parts or gaps DEL508-508): as above

| Compound | EC50 [1] | EC50 [2] |
| --- | --- | --- |
| CC(c1cn(-c2ccccc2F)nn1)n1cc(-c2ccc(OC3CC3)cc2)c2c(N)ncnc21 (centres unmarked) [Example 212, 5-[4-(Cyclopropyloxy)phenyl]-7-{1-[1-(2-fluorophenyl)-1H-1,2,3-triazol-4-yl]ethyl}-7H-pyrrolo[2,3-d]pyrimidin-4-amine] | 68.2 nM | 12.2 nM |
| Nc1ncnc2c1c(C1CC1)cn2Cc1cnn(-c2ccccc2F)c1 [Example 317, 5-Cyclopropyl-7-{[1-(2-fluorophenyl)-1H-pyrazol-4-yl]methyl}-7H-pyrrolo[2,3-d]pyrimidin-4-amine] | 129 nM | 87 nM |
| COCC(c1cn(-c2ccccc2F)nn1)n1cc(-c2cccnc2OC)c2c(N)ncnc21 (centres unmarked) [Example 314, 7-{1-[1-(2-Fluorophenyl)-1H-1,2,3-triazol-4-yl]-2-methoxyethyl}-5-(2-methoxypyridin-3-yl)-7H-pyrrolo[2,3-d]pyrimidin-4-amine] | 230 nM | 358 nM |
| CCC(c1cn(-c2cc(F)cc(F)c2)nn1)n1cc(-c2cnc(C(F)(F)F)nc2)c2c(N)ncnc21 (single isomer, unassigned; enantiomer 2) [Example 312, 7-{1-[1-(3,5-Difluorophenyl)-1H-1,2,3-triazol-4-yl]propyl}-5-[2-(trifluoromethyl)pyrimidin-5-yl]-7H-pyrrolo[2,3-d]pyrimidin-4-amine, enantiomer 2] | 1020 nM | 279 nM |
| CCC(c1cn(-c2ccccc2)nn1)n1cc(-c2cncnc2OC)c2c(N)ncnc21 (single isomer, unassigned; enantiomer 1) [Example 127, (−) 5-(4-Methoxypyrimidin-5-yl)-7-[1-(1-phenyl-1H-1,2,3-triazol-4-yl)propyl]-7H-pyrrolo[2,3-d]pyrimidin-4-amine, enantiomer 1] | 408 nM | 448 nM |
| COc1ncncc1-c1cn(C(c2cn(-c3ccccc3F)nn2)C2CC2)c2ncnc(N)c12 (single isomer, unassigned; enantiomer 1) [Example 174, (+) 7-{Cyclopropyl[1-(2-fluorophenyl)-1H-1,2,3-triazol-4-yl]methyl}-5-(4-methoxypyrimidin-5-yl)-7H-pyrrolo[2,3-d]pyrimidin-4-amine, enantiomer 1] | 19.6 nM | 31.5 nM |
| COc1ncncc1-c1cn(C(c2cn(-c3ccccc3F)nn2)C2CC2)c2ncnc(N)c12 (centres unmarked) [Example 243, 7-{Cyclopropyl[1-(2-fluorophenyl)-1H-1,2,3-triazol-4-yl]methyl}-5-(4-methoxypyrimidin-5-yl)-7H-pyrrolo[2,3-d]pyrimidin-4-amine] | 56.2 nM | 95.3 nM |
| CC(c1cnn(-c2ccccc2F)c1)n1c(C#N)c(-c2cnc(C(F)(F)F)nc2)c2c(N)ncnc21 (single isomer, unassigned) [Example 5, 4-Amino-7-(1-(1-(2-fluorophenyl)-1H-pyrazol-4-yl)ethyl)-5-(2-(trifluoromethyl)pyrimidin-5-yl)-7H-pyrrolo[2,3-d] pyrimidine-6-carbonitrile] | 7.69 nM | 7.73 nM |
| CCC(c1nnn(-c2ccc(F)cc2F)c1C)n1cc(-c2cnc(C(F)(F)F)nc2)c2c(N)ncnc21 (single isomer, unassigned) [Example 189] | 6.72 nM | 10.2 nM |
| CCC(c1cn(-c2ccc(F)c(F)c2)nn1)n1cc(-c2cnc(C(F)F)nc2)c2c(N)ncnc21 (single isomer, unassigned; enantiomer 2) [Example 313, 5-[2-(Difluoromethyl)pyrimidin-5-yl]-7-{1-[1-(3,4-difluorophenyl)-1H-1,2,3-triazol-4-yl]propyl}-7H-pyrrolo[2,3-d]pyrimidin-4-amine, enantiomer 2] | 74.9 nM | 131 nM |

The next lines start with the values.

| EC50 [1] | EC50 [2] | Compound |
| --- | --- | --- |
| 195 nM | 32 nM | COc1ccc(-c2cn(C(C)c3cnc(-c4ccccc4F)[nH]3)c3ncnc(N)c23)c(F)c1 (centres unmarked) [Example 59, 5-(2-Fluoro-4-methoxyphenyl)-7-{1-[2-(2-fluorophenyl)-1H-imidazol-5-yl]ethyl}-7H-pyrrolo[2,3-d]pyrimidin-4-amine] |
| 10.8 nM | 12.5 nM | CCC(c1cn(-c2cccc(F)c2F)nn1)n1c(C#N)c(-c2cnc(C(F)(F)F)nc2)c2c(N)ncnc21 (single isomer, unassigned) [Example 18, 4-amino-7-{1-[1-(2,3-difluorophenyl)-1H-1,2,3-triazol-4-yl]propyl}-5-[2-(trifluoromethyl)pyrimidin-5-yl]-7H-pyrrolo[2,3-d] pyrimidine-6-carbonitrile] |
| 398 nM | 833 nM | COc1ncccc1-c1cn(Cc2nnc(-c3ccccc3)[nH]2)c2ncnc(N)c12 [Example 272, 5-(2-Methoxypyridin-3-yl)-7-[(5-phenyl-4H-1,2,4-triazol-3-yl)methyl]-7H-pyrrolo[2,3-d]pyrimidin-4-amine] |
| 433 nM | 239 nM | CCC(c1cn(-c2ccc(F)c(F)c2)nn1)n1cc(-c2cnc(OC)c(F)c2)c2c(N)ncnc21 (single isomer, unassigned; enantiomer 1) [Example 157, 7-{1-[1-(3,4-Difluorophenyl)-1H-1,2,3-triazol-4-yl]propyl}-5-(5-fluoro-6-methoxypyridin-3-yl)-7H-pyrrolo[2,3-d]pyrimidin-4-amine, enantiomer 1] |
| 41.8 nM | 32.5 nM | CCC(c1cn(-c2ccccc2F)nn1)n1c(C#N)c(-c2cnc(C(F)(F)F)nc2)c2c(N)ncnc21 (single isomer, unassigned) [Example 23, 4-Amino-7-{1-[1-(2-fluorophenyl)-1H-1,2,3-triazol-4-yl]propyl}-5-[2-(trifluoromethyl)pyrimidin-5-yl]-7H-pyrrolo[2,3-d]pyrimidine-6-carbonitrile] |
| 404 nM | 55 nM | Cc1cccc(-n2cc(C(C)n3cc(-c4ccc(Cl)cc4)c4c(N)ncnc43)nn2)c1 (centres unmarked) [Example 208, 5-(4-Chlorophenyl)-7-{1-[1-(3-methylphenyl)-1H-1,2,3-triazol-4-yl]ethyl}-7H-pyrrolo[2,3-d]pyrimidin-4-amine] |
| 9.89 nM | 8 nM | CCC(c1cnn(-c2ccccc2F)c1)n1cc(-c2cnc(C(F)(F)F)nc2)c2c(N)ncnc21 (single isomer, unassigned; enantiomer 1) [Example 175, 7-{(1-[1-(2-Fluorophenyl)-1H-pyrazol-4-yl]propyl}-5-[2-(trifluoromethyl)pyrimidin-5-yl]-7H-pyrrolo[2,3-d]pyrimidin-4-amine, enantiomer 1] |
| 45.8 nM | 55.4 nM | CCC(c1cn(-c2cc(F)ccc2F)nn1)n1cc(-c2cncnc2OC)c2c(N)ncnc21 (single isomer, unassigned; enantiomer 1) [Example 307, (+) 7-{1-[1-(2,5-Difluorophenyl)-1H-1,2,3-triazol-4-yl]propyl}-5-(4-methoxypyrimidin-5-yl)-7H-pyrrolo[2,3-d]pyrimidin-4-amine, enantiomer 1] |
| 422 nM | 140 nM | CC(C)n1cc(Cn2cc(-c3ccc(Cl)cc3)c3c(N)ncnc32)cn1 [Example 254, 5-(4-Chlorophenyl)-7-{[1-(propan-2-yl)-1H-pyrazol-4-yl]methyl}-7H-pyrrolo[2,3-d]pyrimidin-4-amine] |
| 172 nM | 122 nM | CC(c1cc(-c2ccccc2F)no1)n1cc(-c2ccc(-c3ncns3)cc2)c2c(N)ncnc21 (centres unmarked) [Example 107, 7-{1-[3-(2-Fluorophenyl)-1,2-oxazol-5-yl]ethyl}-5-[4-(1,2,4-thiadiazol-5-yl)phenyl]-7H-pyrrolo[2,3-d]pyrimidin-4-amine] |
| 28.9 nM | 45.3 nM | CCC(c1cn(-c2ccc(F)cc2)nn1)n1cc(-c2cncnc2OC)c2c(N)ncnc21 (single isomer, unassigned; enantiomer 1) [Example 149, (+) 7-{1-[1-(4-Fluorophenyl)-1H-1,2,3-triazol-4-yl]propyl}-5-(4-methoxypyrimidin-5-yl)-7H-pyrrolo[2,3-d]pyrimidin-4-amine, enantiomer 1] |
| 206 nM | 52 nM | Cc1c(-c2ccc(Cl)cc2)c2c(N)ncnc2n1C(C)c1cc(-c2ccccc2F)no1 (centres unmarked) [Example 259, 5-(4-Chlorophenyl)-7-{1-[3-(2-fluorophenyl)-1,2-oxazol-5-yl]ethyl}-6-methyl-7H-pyrrolo[2,3-d]pyrimidin-4-amine] |

— US12612409B2, “Pyrrolopyrimidines as CFTR potentiators” (Cystic Fibrosis Foundation, priority 2016, dated 2026)
